Source: US20240050358A1, “PERSONAL CARE COMPOSITION” (Conopco, Inc., d/b/a UNILEVER, priority 2020, published 2024)

System: interleukin (IL)-6
Test: Human immune cell line THP-1 in vitro assay: IL-6 by ELISA after LPS co-treatment
Type: cell-based
Details: PMA-differentiated THP1-XBlue cells co-treated with E. coli LPS and composition for 24 hours; supernatant ELISA; percentage to LPS-treated cells (=100%); three repeats
Experimental: Human Immune Cell Line THP-1 In Vitro Assay The following procedure was used to determine the anti-inflammation efficacy: THP1-XBlue™ (Cat No.: thpx-sp, InvivoGen, San Diego, CA) cells were cultured as suspense in RPMI 1640 medium supplemented with 10% fetal bovine serum (FBS), penicillin (10 U/mL)-streptomycin (10 μg/mL) (Gibco, Invitrogen, Carlsbad, CA). Cells were differentiated in 24-well plates at the density of 5×10^5 cells/well with 100 nM phorbol-12-myristate-13-acetate (PMA) for 72 hours. Cells were then co-treated with pure E. coli lipopolysaccharides (LPS) and various compositions in Table 1. […] Expression of IL-6 was calculated as the percentage to LPS-treated cells which was designated as 100%. P value was analysed by Student's t-test comparing combination groups and individual compound groups (expression of IL-6, three repeats for each group).

Compound: CCCCCCC(O)CCCCCCCCCCC(=O)O (stereo not shown) [B, 12-hydroxystearic acid]
- Expression of IL-6 (%): 91.9%
